These results are taken from patent publication US20250388597A1, “BIFUNCTIONAL PHOTOCROSSLINKING PROBES FOR COVALENT CAPTURE OF PROTEIN-NUCLEIC ACID COMPLEXES IN CELLS” (UNIVERSITY OF SOUTHERN CALIFORNIA, priority 2022, published 2025).

In test [1] the target is T1, Nkx2.5/DNA complex (Homo sapiens, UniProt P52952).
T1 construct: human Nkx2.5 DBD (the homeodomain); made in house
Kind of test: BFPX crosslinking of Nkx2.5/DNA complexes, SDS PAGE. The test is classed as biochemical. Conditions: denaturing SDS PAGE; probes with UV. The protocol: FIG. 12H depicts BFPX crosslinking of Nkx2.5/DNA complexes. […] The various treatment combinations were list above the gel. The reactions were then analyzed by SDS PAGE under denaturing condition as described in FIG. 12D.

The target in test [2] is T2, FOXP3 in HEK293T cells (Homo sapiens, UniProt Q9BZS1).
T2 construct: AVI tag (N); TEV site (N); expressed in transfected cells; host or cells: HEK293T
T2 sequence (Q9BZS1 1-431): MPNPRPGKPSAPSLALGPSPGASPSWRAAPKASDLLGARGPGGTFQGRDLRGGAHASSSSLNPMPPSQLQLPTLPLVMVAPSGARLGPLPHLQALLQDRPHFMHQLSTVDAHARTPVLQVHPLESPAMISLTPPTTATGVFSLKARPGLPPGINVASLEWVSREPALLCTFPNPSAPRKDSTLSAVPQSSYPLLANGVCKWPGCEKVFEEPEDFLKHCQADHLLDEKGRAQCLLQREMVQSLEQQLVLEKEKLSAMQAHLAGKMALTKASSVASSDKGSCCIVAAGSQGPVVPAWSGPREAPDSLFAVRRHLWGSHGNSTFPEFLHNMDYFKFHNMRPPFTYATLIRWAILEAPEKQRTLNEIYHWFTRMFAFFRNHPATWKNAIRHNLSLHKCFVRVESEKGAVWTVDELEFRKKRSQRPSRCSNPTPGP
Kind of test: Capture of FLAG-tagged FOXP3 complexes in transfected HEK293T cells, whole cell lysate western blot. The test is classed as cell-based. As to conditions: for crosslinked FOXP3 complexes in probe and UV treated cells: SPB-AAD 10 or 100 μM, SPB-PEG4-AAD 100 μM, UV 2-5 min, vs controls lanes 1-3. The protocol: FIG. 14C depicts 10 cm plate HEK293T cells (˜8.8 million) were transfected with 2 μg AVI-TEV-FLAG-FOXP3 for about 48 hr. The cells were harvested into 1.6 ml room temperature 1×DPBS buffer (with no calcium and magnesium). The cells were aliquoted into 300 μl per sample and each sample was added SPB-AAD 10 μM (A10) or 100 μM (A100) or SPB-PEG4-AAD 100 μM (p100). The samples were incubated at 37° C. for 30 min in dark with rotation. The samples were transferred to the middle wells of a 24-well plate (Corning #3527). With 300 μl, the liquid is about 1.5 mm high in a 24-well plate well. The samples on the 24-well plate were then UV illuminated (LED Chip: 21.4 mm×21.4 mm, 365-370 nm, 30 Watt, sample distance (the bottom of the well plate to the lamp plane) is 4 cm, exposure time 2-5 min at 4 degree C.). The BFPX-treated cells were recovered from the 24-well plate and washed using 1×DPBS, centrifuged at 500 g for 5 min to pellet the cells and remove the DPBS buffer. 0.5 million of the BFPX-treated cells was added 20 μl 1×RIPA buffer, shake on ice for 15 min to lyse the cells. The lysis mixture was then added 3 μl 10× MNase, 0.25 μl RnaseA, 12.5 Unit Mnase, and ddw to 30 μl, incubated at 37° C. for 15 min. The lysis mixture was then added 6 μl SDS loading dye (2% SDS), boil 10 min at 95° C. Run at 200V for 40 minutes on 4%-15% SDS-PAGE gel and analyzed by western blot (Transfer at 18V (30 mA) overnight, block in 2% BSA in PBS for 45 min, Primary antibody: 1:2000 anti-FLAG; room temperature, 2 hr; Secondary antibody: anti mouse light chain kappa 1: 100,000; Femto Signal ECL).
Finally, we tested the capture of transcription factors bound to genomic DNA inside cells. HEK293T cells transfected with FLAG-tagged FOXP3 were treated with various combination of UV illumination and probe (SPB-AAD: A; and P: SPB-PEG4-AAD). The cells were lysed in 1×RIPA buffer followed by RNase and MNase treatment. The whole cell lysate were then added SDS loading dye, heated at 95 degree C. and run on a 4-15% SDS PAGE gel and analyzed by western blot using an anti-FLAG antibody.
In general terms: A western blot detects proteins with antibodies after separation by electrophoresis.

Structures are written as SMILES.

T1 sequence (P52952 138-197 limits assumed, one chain of several): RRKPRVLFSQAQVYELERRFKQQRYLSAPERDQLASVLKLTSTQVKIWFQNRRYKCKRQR

For `C#CCCC1(CCNC(=O)CCCOc2c3occc3cc3ccc(=O)oc23)N=N1` [SPB-AAD, N-(2-(3-(but-3-yn-1-yl)-3H-diazirin-3-yl)ethyl)-4-((7-oxo-7H-furo[3,2-g]chromen-9-yl)oxy)butanamide], the “crosslinking of the Nkx2.5/DNA complex” value in test [1] is “significant crosslinking of the Nkx2.5/DNA complex”. In addition, in test [2] (10 μM (lane 4) vs 100 μM (lane 6)), the “dependence of crosslinked FOXP3 complex formation on probe concentration” value is “dosage dependent on probe concentration”. Also, in test [2], the “crosslinked FOXP3 complexes in probe and UV treated cells” value is on record as “higher molecular weight species containing FOXP3 were observed”.

As for `C#CCCC1(CCNC(=O)CCOCCOCCOCCOCCNC(=O)CCCOc2c3occc3cc3ccc(=O)oc23)N=N1` [SPB-PEG4-AAD, N-(2-(3-(but-3-yn-1-yl)-3H-diazirin-3-yl)ethyl)-1-(4-((7-oxo-7H-furo[3,2-g]chromen-9-yl)oxy)butanamido)-3,6,9,12-tetraoxapentadecan-15-amide], the “crosslinking of the Nkx2.5/DNA complex” value in test [1] is “significant crosslinking of the Nkx2.5/DNA complex”. The “crosslinked FOXP3 complexes in probe and UV treated cells” value in test [2] was “higher molecular weight species containing FOXP3 were observed”.
